What was measured:
human FFAR4 = target: T1, human FFAR4 (Homo sapiens, UniProt Q5NUL3); assay: cell-based
T1 sequence (Q5NUL3 1-361): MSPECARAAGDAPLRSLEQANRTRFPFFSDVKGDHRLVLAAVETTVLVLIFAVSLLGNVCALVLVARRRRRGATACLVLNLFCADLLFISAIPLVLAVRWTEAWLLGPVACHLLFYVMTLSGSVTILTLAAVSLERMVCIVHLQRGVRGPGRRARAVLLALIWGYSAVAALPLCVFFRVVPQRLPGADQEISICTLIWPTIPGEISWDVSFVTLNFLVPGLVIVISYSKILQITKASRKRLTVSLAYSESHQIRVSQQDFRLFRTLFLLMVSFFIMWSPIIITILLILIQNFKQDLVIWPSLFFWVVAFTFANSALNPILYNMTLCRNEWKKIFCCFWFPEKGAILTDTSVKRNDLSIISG

normal ICR mice = assay: oral glucose tolerance test in normal ICR mice; conditions: 20 mg/kg by gavage 30 min before glucose 2 g/kg, AUC 0-120 min
Protocol: Compounds (20 mg/kg) or the vehicle was administered by gavage 30 min before glucose administration (2 g/kg). […] The test compounds were dissolved in 0.5% methyl cellulose (MC) and vortexed before the study initiation. […] The exact dose volume was calculated separately for each animal. […] Blood glucose levels were measured using blood glucose test strips (Sannuo GA-3 type; Changsha, China).

DIO mice = assay: anti-hyperglycemic effects (OGTT, insulin) in diet-induced obese (DIO) mice; type: in vivo, C57BL/6 mice; conditions: for reduction of blood glucose AUC versus vehicle-treated group: AUC -30 to 120 min
Protocol: During the experimental period, plasma insulin levels were measured 30 min after glucose administration using an insulin ELISA Kit.
Plasma insulin levels were measured using a mouse insulin RIA kit 30 min after oral glucose loading (Beijing North Institute of Biological Technology, Beijing, China).

human FFAR1 = target: T2, human FFAR1 (Homo sapiens, UniProt O14842); assay: calcium influx assay, hFFAR1 (hGPR40) agonistic activity in transfected CHO cells; type: cell-based
T2 construct: expressed in transfected cells; host or cells: CHO cells

[1] = pharmacokinetic study in ICR mice; type: in vivo; conditions: oral 10 mg/kg
Protocol: The AUC was calculated using the trapezoidal method.
Plasma was collected and precipitated using two volumes of acetonitrile containing an internal standard. This step was followed by centrifugation at 15.680 g for 10 min after vortexing for 5 min. The supernatant was diluted with acetonitrile, and 10 µL of the supernatant was analyzed by Waters LC-PDA-MS/MS to determine plasma drug levels. Pharmacokinetic parameters were determined using mean data from four mice at each time point. Statistical analysis of the data was performed using the DAS 2.1.1 statistical software program (BioVoice, Shanghai, China).

T2 sequence (O14842 whole entry): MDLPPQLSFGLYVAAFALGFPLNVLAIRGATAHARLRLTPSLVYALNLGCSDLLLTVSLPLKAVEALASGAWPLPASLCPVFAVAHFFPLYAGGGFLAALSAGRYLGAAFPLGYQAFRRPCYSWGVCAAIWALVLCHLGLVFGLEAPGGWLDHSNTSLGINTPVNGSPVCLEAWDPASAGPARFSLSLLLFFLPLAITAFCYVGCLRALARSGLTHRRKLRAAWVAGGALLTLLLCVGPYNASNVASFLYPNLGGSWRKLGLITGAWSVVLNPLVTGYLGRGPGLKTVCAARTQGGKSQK

Cc1ccc(-c2ccc(F)cc2NC(=O)c2ccc(OCC(=O)O)cc2)cc1 [Compound 1f, 2-(4-((4-fluoro-4′-methyl-[1,1′-biphenyl]-2-yl)carbamoyl)phenoxy)acetic acid]
EC50 (human FFAR4): 136 nM

Cc1ccc(-c2ccc(F)cc2NC(=O)c2ccc(OCCCC(=O)O)cc2)cc1 [Compound 2f, 4-(4-((4-fluoro-4′-methyl-[1,1′-biphenyl]-2-yl)carbamoyl)phenoxy)butanoic acid]
EC50 (human FFAR4): 189 nM

Cc1ccc(-c2ccc(F)cc2NC(=O)c2ccc(OCCCCC(=O)O)cc2)cc1 [Compound 3f, 5-(4-((4-fluoro-4′-methyl-[1,1′-biphenyl]-2-yl)carbamoyl)phenoxy)pentanoic acid]
EC50 (human FFAR4): 236 nM

Cc1ccc(-c2ccc(F)cc2NC(=O)c2ccc(OCC(=O)O)c(C)c2)cc1 [Compound 4f, 2-(4-((4-fluoro-4′-methyl-[1,1′-biphenyl]-2-yl)carbamoyl)-2-methylphenoxy)acetic acid]
EC50 (human FFAR4): 145 nM

Cc1ccc(-c2ccc(F)cc2NC(=O)c2ccc(OCCCC(=O)O)c(C)c2)cc1 [Compound 5f, 4-(4-((4-fluoro-4′-methyl-[1,1′-biphenyl]-2-yl)carbamoyl)-2-methylphenoxy)butanoic acid]
reduction of blood glucose AUC versus vehicle-treated group (normal ICR mice): 16.7%
EC50 (human FFAR4): 113 nM

Cc1ccc(-c2ccc(F)cc2NC(=O)c2ccc(OCCCCC(=O)O)c(C)c2)cc1 [Compound 6f, 5-(4-((4-fluoro-4′-methyl-[1,1′-biphenyl]-2-yl)carbamoyl)-2-methylphenoxy)pentanoic acid]
EC50 (human FFAR4): 218 nM

Cc1ccc(-c2ccc(F)cc2NC(=O)c2ccc(OCC(=O)O)cc2C)cc1 [Compound 7f, 2-(4-((4-fluoro-4′-methyl-[1,1′-biphenyl]-2-yl)carbamoyl)-3-methylphenoxy)acetic acid]
EC50 (human FFAR4): 189 nM

Cc1ccc(-c2ccc(F)cc2NC(=O)c2ccc(OCCCC(=O)O)cc2C)cc1 [Compound 8f, 4-(4-((4-fluoro-4′-methyl-[1,1′-biphenyl]-2-yl)carbamoyl)-3-methylphenoxy)butanoic acid]
EC50 (human FFAR4): 246 nM

Cc1ccc(-c2ccc(F)cc2NC(=O)c2ccc(OCCCCC(=O)O)cc2C)cc1 [Compound 9f, 5-(4-((4-fluoro-4′-methyl-[1,1′-biphenyl]-2-yl)carbamoyl)-3-methylphenoxy)pentanoic acid]
EC50 (human FFAR4): 279 nM

Cc1ccc(-c2ccc(F)cc2NC(=O)c2ccc(OCC(=O)O)c(F)c2)cc1 [Compound 10f, 2-(2-fluoro-4-((4-fluoro-4′-methyl-[1,1′-biphenyl]-2-yl)carbamoyl)phenoxy)acetic acid]
reduction of blood glucose AUC versus vehicle-treated group (normal ICR mice): 30.8%
reduction of blood glucose AUC versus vehicle-treated group (DIO mice; 30 mg/kg oral 30 min before glucose 2 g/kg): 20.1%
reduction of blood glucose AUC versus vehicle-treated group (DIO mice; 100 mg/kg oral 30 min before glucose 2 g/kg): 32.4%
hypoglycemic effect (DIO mice; doses exceeding 10 mg/kg oral): significant hypoglycemic activity
plasma insulin level versus control group (DIO mice; doses greater than 10 mg/kg, 30 min after glucose administration): significantly higher
hypoglycemia during the experiment (DIO mice; doses up to 100 mg/kg oral): no hypoglycemia was observed
hypoglycemic effect (DIO mice; lower doses 1 mg/kg and 3 mg/kg oral): did not exhibit significant hypoglycemic effects
potency in stimulating FFAR4 over FFAR1 (selectivity) (human FFAR1; FFAR4 versus FFAR1): approximately 400 fold
EC50 (human FFAR1; human FFAR1 transfected CHO cells, calcium influx): 32900 nM
Tmax ([1]; male, mouse, plasma): 0.5 h
AUC ([1]; male, mouse, plasma, 0 to 24 h, mean ± SD of four mice): 9830 ± 2930 ng·h/mL
Cmax ([1]; male, mouse, plasma, 0.5% methyl cellulose, mean ± SD of four mice): 3140 ± 1150 ng/mL
half-life ([1]; male, mouse, plasma, mean ± SD of four mice): 1.51 ± 0.51 h
Cmax relative to TUG-891 [1]: 2.5 times
EC50 (human FFAR4): 78.6 nM

Cc1ccc(-c2ccc(F)cc2NC(=O)c2ccc(OCCCC(=O)O)c(F)c2)cc1 [Compound 11f, 4-(2-fluoro-4-((4-fluoro-4′-methyl-[1,1′-biphenyl]-2-yl)carbamoyl)phenoxy)butanoic acid]
reduction of blood glucose AUC versus vehicle-treated group (normal ICR mice): 20.0%
EC50 (human FFAR4): 93.2 nM

Cc1ccc(-c2ccc(F)cc2NC(=O)c2ccc(OCCCCC(=O)O)c(F)c2)cc1 [Compound 12f, 5-(2-fluoro-4-((4-fluoro-4′-methyl-[1,1′-biphenyl]-2-yl)carbamoyl)phenoxy)pentanoic acid]
EC50 (human FFAR4): 127 nM

Reference: PMC11547093, “Novel Phenoxyalkanoic Acid Derivatives as Free Fatty Acid Receptor 4 Agonists for Treating Type 2 Diabetes Mellitus” (International Journal of Molecular Sciences, 2024)
